Measured values as given in patent US9458414B2, “Cleaning, surfactant, and personal care compositions” (SEGETIS, INC., priority 2012, dated 2016).

How the values were obtained:
Assay type in all cases: physicochemical
[1] = Coupling of water and octanoic acid by hydrotropes (amount producing a single phase)
Method: Hydrotropes were added to a two-component mixture of octanoic acid and deionized (DI) water to find the amount that produced a single phase from the two separate phases of water and octanoic acid.
The percent hydrotrope required to compatibilize phases (and the resulting percent octanoic acid) were calculated and the results are shown in Table 4 as well as FIG. 1.

[2] = Coupling of water and soy methyl ester by hydrotropes
Method: Hydrotropes were added to a two-component mixture of soy methyl ester and DI water to find the amount that produced a single phase from the two separate phases of water and soy methyl ester. The percent hydrotrope required to compatibilize the phases was calculated.

[3] = Coupling of water and castor oil by hydrotropes
[4] = Hard surface cleaning formulation freeze-thaw testing; conditions: Example 5 formulation containing the solvent, 0° C. freezer >12 hours, thaw to room temperature
Method: Formulations as in Example 5 were prepared by combining ingredients and mixing until homogeneous. Freeze-thaw testing was performed over 3 cycles. Each cycle was putting the formulations into a 0° C. freezer for greater than 12 hours, then taking them out and allowing the samples to thaw to room temperature and then making the visual observation.

[5] = Hard surface cleaning formulation heat cloud point testing; conditions: Example 5 formulation containing the solvent, heated while mixing
Method: Formulations as in Example 5 were prepared by combining ingredients and mixing until homogeneous.

[6] = ratio of water:octanoic acid 10:90
[7] = ratio of water:octanoic acid 30:70
[8] = ratio of water:octanoic acid 50:50
[9] = ratio of water:octanoic acid 70:30
[10] = ratio of water:octanoic acid 90:10
[11] = water:octanoic acid 10:90 (DI water 0.5 g, octanoic acid 4.5 g)
[12] = water:octanoic acid 30:70 (DI water 1.5 g, octanoic acid 3.5 g)
[13] = water:octanoic acid 50:50 (DI water 5.0 g, octanoic acid 5.0 g)
[14] = water:octanoic acid 70:30 (DI water 3.5 g, octanoic acid 1.5 g)
[15] = water:octanoic acid 90:10 (DI water 4.5 g, octanoic acid 0.5 g)
[16] = all ratios 10:90 to 90:10, measured levels up to >95%
[17] = ratio of water:soy methyl esters 10:90
[18] = ratio of water:soy methyl esters 30:70
[19] = ratio of water:soy methyl esters 50:50
[20] = ratio of water:soy methyl esters 70:30
[21] = ratio of water:soy methyl esters 90:10
[22] = ratio of water to castor oil 10:90
[23] = ratio of water to castor oil 30:70
[24] = ratio of water to castor oil 50:50
[25] = ratio of water to castor oil 70:30
[26] = ratio of water to castor oil 90:10

| Compound | Wt % Hydrotrope required to compatibilize phases [1, 6] | Wt % Octanoic Acid (resulting, at compatibilization) [1, 6] | Wt % Hydrotrope required to compatibilize phases [1, 7] | Wt % Octanoic Acid (resulting, at compatibilization) [1, 7] | Wt % Hydrotrope required to compatibilize phases [1, 8] | Wt % Octanoic Acid (resulting, at compatibilization) [1, 8] | Wt % Hydrotrope required to compatibilize phases [1, 9] | Wt % Octanoic Acid (resulting, at compatibilization) [1, 9] | Wt % Hydrotrope required to compatibilize phases [1, 10] | Wt % Octanoic Acid (resulting, at compatibilization) [1, 10] | Amount of hydrotrope that produced a single phase [1, 11] | Amount of hydrotrope that produced a single phase [1, 12] | Amount of hydrotrope that produced a single phase [1, 13] | Amount of hydrotrope that produced a single phase [1, 14] | Amount of hydrotrope that produced a single phase [1, 15] | Wt % Hydrotrope required to compatibilize the phases [2, 17] | Wt % Soy Methyl Esters (at compatibilization) [2, 17] | Wt % Hydrotrope required to compatibilize the phases [2, 18] | Wt % Soy Methyl Esters (at compatibilization) [2, 18] | Wt % Hydrotrope required to compatibilize the phases [2, 19] | other results |
| --- | --- | --- | --- | --- | --- | --- | --- | --- | --- | --- | --- | --- | --- | --- | --- | --- | --- | --- | --- | --- | --- |
| Sodium xylene-sulfonate [Sodium xylene-sulfonate (SXS) (40%)] | 13% | 61% | 16% | 43% | 17% | 29% | 17% | 18% | 16% | 6% | 2.32 grams | 3.23 grams | 7.4 grams | 3.55 grams | 3.33 grams |  |  |  |  |  | Compatibilization of water and soy methyl esters [2, 16]: *The sodium xylenesulfonate did not compatibilize at any measured level (up to >95%).; Compatibilization of water and castor oil [3, 16]: *The sodium xylenesulfonate did not compatibilize at any measured level (up to >95%). |
| COC(C)COC(C)CO (stereo not shown) [DPM, dipropylene glycol methyl ether] | 30% | 63% | 47% | 37% | 51% | 25% | 48% | 16% | 43% | 6% | 2.14 grams | 4.52 grams | 10.34 grams | 4.66 grams | 3.7 grams | 48% | 47% | 63% | 28% | 74% | Wt % Soy Methyl Esters (at compatibilization) [2, 19]: 13%; Wt % Hydrotrope required to compatibilize the phases [2, 20]: 78%; Wt % Soy Methyl Esters (at compatibilization) [2, 20]: 5%; Wt % Hydrotrope required to compatibilize the phases [2, 21]: 78%; Wt % Soy Methyl Esters (at compatibilization) [2, 21]: 2%; Wt % Castor oil (at compatibilization) [3, 22]: 40%; Wt % Hydrotrope required to compatibilize phases [3, 22]: 56%; Wt % Castor oil (at compatibilization) [3, 23]: 26%; Wt % Hydrotrope required to compatibilize phases [3, 23]: 65%; Wt % Castor oil (at compatibilization) [3, 24]: 13%; Wt % Hydrotrope required to compatibilize phases [3, 24]: 74%; Wt % Castor oil (at compatibilization) [3, 25]: 5%; Wt % Hydrotrope required to compatibilize phases [3, 25]: 79%; Wt % Castor oil (at compatibilization) [3, 26]: 2%; Wt % Hydrotrope required to compatibilize phases [3, 26]: 81% |
| COCC(C)O (stereo not shown) [PM, propylene glycol methyl ether] | 18% | 74% | 38% | 43% | 42% | 29% | 42% | 17% | 41% | 6% | 1.09 grams | 3.12 grams | 3.62 grams | 3.68 grams | 3.44 grams | 51% | 44% | 67% | 25% | 77% | Wt % Soy Methyl Esters (at compatibilization) [2, 19]: 11%; Wt % Hydrotrope required to compatibilize the phases [2, 20]: 81%; Wt % Soy Methyl Esters (at compatibilization) [2, 20]: 5%; Wt % Hydrotrope required to compatibilize the phases [2, 21]: 77%; Wt % Soy Methyl Esters (at compatibilization) [2, 21]: 2%; Wt % Castor oil (at compatibilization) [3, 22]: 36%; Wt % Hydrotrope required to compatibilize phases [3, 22]: 61%; Wt % Castor oil (at compatibilization) [3, 23]: 26%; Wt % Hydrotrope required to compatibilize phases [3, 23]: 65%; Wt % Castor oil (at compatibilization) [3, 24]: 12%; Wt % Hydrotrope required to compatibilize phases [3, 24]: 76%; Wt % Castor oil (at compatibilization) [3, 25]: 5%; Wt % Hydrotrope required to compatibilize phases [3, 25]: 81%; Wt % Castor oil (at compatibilization) [3, 26]: 2%; Wt % Hydrotrope required to compatibilize phases [3, 26]: 83% |
| CCO [ethanol] | 18% | 74% | 37% | 44% | 39% | 31% | 37% | 19% | 36% | 6% | 1.12 grams | 2.95 grams | 3.14 grams | 2.97 grams | 2.87 grams | 54% | 41% | 74% | 18% | 78% | Wt % Soy Methyl Esters (at compatibilization) [2, 19]: 11%; Wt % Hydrotrope required to compatibilize the phases [2, 20]: 80%; Wt % Soy Methyl Esters (at compatibilization) [2, 20]: 6%; Wt % Hydrotrope required to compatibilize the phases [2, 21]: 77%; Wt % Soy Methyl Esters (at compatibilization) [2, 21]: 2%; Wt % Castor oil (at compatibilization) [3, 22]: 40%; Wt % Hydrotrope required to compatibilize phases [3, 22]: 55%; Wt % Castor oil (at compatibilization) [3, 23]: 22%; Wt % Hydrotrope required to compatibilize phases [3, 23]: 69%; Wt % Castor oil (at compatibilization) [3, 24]: 10%; Wt % Hydrotrope required to compatibilize phases [3, 24]: 79%; Wt % Castor oil (at compatibilization) [3, 25]: 5%; Wt % Hydrotrope required to compatibilize phases [3, 25]: 82%; Wt % Castor oil (at compatibilization) [3, 26]: 2%; Wt % Hydrotrope required to compatibilize phases [3, 26]: 84% |
| CCCCOCCO [2-butoxyethanol] | 33% | 60% | 52% | 34% | 57% | 21% | 61% | 12% | 52% | 5% | 2.47 grams | 5.39 grams | 6.74 grams | 7.9 grams | 5.43 grams |  |  |  |  |  | Freeze-thaw visual observation ([4]; Cycle 1): separation;; Freeze-thaw visual observation ([4]; Cycle 2): separation;; Freeze-thaw visual observation ([4]; Cycle 3): two phases;; Cloud point [5]: 44 °C; Cloud point ([5]; listed as Butyl Cellosolve): 44 °C |
